Legend:
[1] = Cytotoxicity, CellTiter-Glo, PBMC; assay type: cell-based; conditions: human, peripheral blood mononuclear cells (PBMC)
Procedure: The cytotoxicity of compounds was determined in peripheral blood mononuclear cells (PBMCs) and primary human foreskin fibroblasts, both purchased frozen from AllCells, Inc, CA. Cells were incubated with test compound at various concentrations in triplicate for a period of 3 days in 96-well plates. The cytotoxicity or inhibition of cell proliferation was determined using a standard CellTiter-Glo® Luminescent Cell Viability Assay (Promega, Madison, WI) that measures total cellular adenosine triphosphate (ATP) concentration as a function of cell viability. In addition, cytotoxicity assays were also performed in HeLa cells in parallel with VEGF ELISA to ensure that the inhibition of VEGF production in HeLa cells was not due to cytotoxicity.

[2] = test system: membrane bound VEGF (VEGF189 and VEGF206); experiment: Western blot of membrane bound VEGF isoforms; assay type: cell-based, human
Procedure: Cells were treated with test compounds for the indicated times as shown in the Results section. Whole-cell extracts were obtained by lysing cells in M-PER lysis buffer (Pierce, Rockford, IL) containing 150 mM NaCl, 2 mM EDTA and 1x Halt protease inhibitors (Pierce). Samples were resolved on a Tris-glycine Criterion gel (Bio-Rad) and transferred onto a 0.45 μm nitrocellulose membrane. The membranes were then immunoblotted with specific antibodies as shown in the Results section: antibody (C1) specific for VEGF was purchased from Santa Cruz Biotechnologies (used at 1:200 dilution); and antibody specific for human β-actin was purchased from Abcam (Cambridge, MA) (1:10000 dilution). Immunodetection was done using the corresponding secondary antibodies conjugated with infrared dyes or horseradish peroxidase. The expression levels of proteins were quantified with Odyssey (LI-COR) or using enhanced chemiluminescence (Pierce).
The effect of PTC-858 on the levels of the soluble and membrane bound VEGF isoforms was characterized. The levels of the soluble VEGF isoforms (VEGF121 and VEGF165) were assessed from conditioned medium as described above. The effect of PTC-858 on the production of the high molecular weight, membrane bound isoforms (VEGF189 and VEGF206), was determined by Western blot analysis using a VEGF specific antibody. β-actin levels were used as an internal loading control. […]

[3] = test system: HT1080 human tumor xenografts; experiment: HT1080 human tumor xenograft growth in athymic nude mice; assay type: in vivo, mouse
Procedure: Log phase growing tumor cells (5–10 x 10^6 cells/mouse, depending on the cell line) were implanted subcutaneously in athymic nude mice. When the average tumor size reached the indicated size, mice were randomly divided into groups and administered vehicle (5% DMSO/ 95% PEG-300) or test compounds by oral gavage. Tumor volumes were measured twice per week using digital calipers and body weights once per week. Tumor volume was determined according to the formula: L x (W)^2/2, where L is the longest dimension and W is the shortest dimension.
These pharmaceutical properties enabled the testing of this compound in a human xenograft pharmacodynamic model in mice to measure modulation of intratumor VEGF levels. Established human HT1080 fibrosarcoma tumors grown as a xenograft in nude mice were treated with PTC-858 orally at a dose of 200 mg/kg, twice per day for 7 days. […] In addition, tumor growth was reduced by 25% after only 7 days of treatment.
Tumors in vehicle-treated mice reached an average volume of 1 cm^3 after 15 days, while tumors in mice treated with 10 mg/kg PTC-510 reached the same volume in about 40 days, a tumor growth delay of 25 days.

[4] = Microsome metabolism - primate; assay type: in vitro ADME
Procedure: (§1) Pharmacological characterization of PTC-510. Pharmacological assays were performed to characterize PTC-510, including metabolic stability in human, primate mouse and rat liver microsomes; absorption in Caco-2 cells; in vitro effect on hERG ion channel; pharmacokinetics; and acute toxicity in the rat.

[5] = Microsome metabolism - dog; assay type: in vitro ADME
hERG ion channel = hERG ion channel (Homo sapiens, UniProt Q12809); assay type: biochemical
hERG ion channel, sequence (Q12809 whole entry): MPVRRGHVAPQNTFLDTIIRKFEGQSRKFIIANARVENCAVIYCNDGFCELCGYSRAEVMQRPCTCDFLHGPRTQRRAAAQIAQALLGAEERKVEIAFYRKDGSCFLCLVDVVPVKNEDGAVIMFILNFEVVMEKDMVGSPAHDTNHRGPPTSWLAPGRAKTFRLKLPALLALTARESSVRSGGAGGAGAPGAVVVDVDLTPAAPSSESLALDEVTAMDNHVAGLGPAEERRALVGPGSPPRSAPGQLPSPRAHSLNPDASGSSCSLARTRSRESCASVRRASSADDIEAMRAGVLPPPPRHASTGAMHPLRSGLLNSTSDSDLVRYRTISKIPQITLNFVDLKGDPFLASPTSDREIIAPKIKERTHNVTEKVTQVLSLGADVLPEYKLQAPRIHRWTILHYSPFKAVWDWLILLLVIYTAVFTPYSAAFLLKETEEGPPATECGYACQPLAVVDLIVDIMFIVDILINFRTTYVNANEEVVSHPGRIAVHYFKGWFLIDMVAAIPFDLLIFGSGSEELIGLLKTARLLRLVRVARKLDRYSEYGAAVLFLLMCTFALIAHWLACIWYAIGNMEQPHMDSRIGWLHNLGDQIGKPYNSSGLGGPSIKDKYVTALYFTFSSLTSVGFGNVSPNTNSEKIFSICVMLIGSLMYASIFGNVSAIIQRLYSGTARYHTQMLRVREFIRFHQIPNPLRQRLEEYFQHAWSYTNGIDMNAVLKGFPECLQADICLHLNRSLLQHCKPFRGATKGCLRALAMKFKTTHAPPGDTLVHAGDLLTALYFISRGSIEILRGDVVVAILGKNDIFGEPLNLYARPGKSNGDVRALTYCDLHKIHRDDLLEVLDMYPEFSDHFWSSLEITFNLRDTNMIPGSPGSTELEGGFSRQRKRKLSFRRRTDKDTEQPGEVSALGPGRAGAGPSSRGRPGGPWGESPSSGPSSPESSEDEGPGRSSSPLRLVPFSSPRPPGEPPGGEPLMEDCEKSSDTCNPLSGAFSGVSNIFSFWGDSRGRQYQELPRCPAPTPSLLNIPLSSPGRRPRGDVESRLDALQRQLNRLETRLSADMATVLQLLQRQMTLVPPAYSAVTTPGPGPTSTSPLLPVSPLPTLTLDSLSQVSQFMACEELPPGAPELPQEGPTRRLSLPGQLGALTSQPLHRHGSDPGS
Procedure: as §1

[6] = Acute Toxicity Dose (ATD); assay type: in vivo
Procedure: as §1

G-CSF = G-CSF ELISA in HT1080 cells under normoxia; assay type: cell-based; conditions: Homo sapiens, HT-1080; HT1080 cells under normoxia (21% oxygen), 48 hours
Procedure: Cells were treated with vehicle control (0.5% DMSO) or compounds at the indicated concentration for 48 hours, and specific proteins in conditioned medium were quantified using commercially available ELISA kits (R&D Systems) according to the manufacturer’s recommendations. VEGF was quantified in HeLa cells under hypoxia (1% oxygen); Tumor necrosis factor alpha (TNFα) was quantified in CEM cells stimulated with 1 μg/mL interleukin-1 beta (Sigma); erythropoietin (EPO) was quantified in HepB3 cells under hypoxic conditions (1% oxygen); and granulocyte colony-stimulating factor (G-CSF), basic fibroblast growth factor (FGF-2) and insulin-like growth factor 1 (IGF-1) were quantified without induction in HT1080 cells, HeLa cells and HepG2 cells, respectively.
Several target proteins were chosen as selectivity counter-screens, including TNF-alpha, FGF-2, G-CSF, IGF-1, and EPO. Similar to that of VEGF, the expression levels of these proteins are post-transcriptionally regulated, either through a 5’-UTR IRES, 3’-UTR AU-rich elements (AREs), or both.

[7] = test system: A375 human melanoma cells; experiment: Chick embryo tumor growth study; assay type: in vivo; conditions: A375 on CAM, single intravenous injection 500 μg per embryo, excised 6 days after dose
Procedure: The chick embryo tumor growth assay was performed as described previously with some modifications. A375 human melanoma cells (5 x 10^6) log-phase growth in a total volume of 40 μL RPMI1640 medium were inoculated into the CAM of 10-day old chick embryos. After 24 h, the embryo received a single intravenous injection of 100 μL of compound (500 μg per embryo) or vehicle control (5% Cremaphor and 5% ethanol in PBS). The embryos were incubated for another 6 days, at which time the embryos were sacrificed. Tumors that formed at the primary site were excised, trimmed free of surrounding CAM tissue, and weighed.
To test the hypothesis that targeting VEGF post-transcriptionally can be a useful approach for the treatment of cancers, we initially evaluated the efficacy of the compounds in a chick embryo tumor growth model, known to be angiogenesis-dependent. Briefly, A375 human melanoma cells were seeded on the chorioallantoic membrane (CAM) of 10 day old chick embryos and, after 24 h, the embryo received a single intravenous injection of 100 μL of compound (500 μg per embryo) or vehicle control (5% Cremaphor and 5% ethanol in PBS). Tumors were grown for seven days, excised, and their wet weights were determined.
A375 human melanoma cells (5 x 10^6) were inoculated into the CAM of 10-days-old chick embryos. […]

Row | Compound | CC50 at 3 days ([1]; read-out: PBMC cytoxtoxicity CC50) | effect on production of membrane bound VEGF189/206 (Western blot) ([2]; Fig 4c) | time for tumors to reach an average volume of 1 cm^3 ([3]; 10 mg/kg, oral, vehicle 15 days) | tumor growth delay ([3]; 10 mg/kg, oral, vs vehicle) | mice with tumors that remained too small to measure (<50 mm^3) ([3]; 50 mg/kg group, 3/7 mice, on study more than 90 days) | time for tumors to reach 1 cm^3 ([3]; 50 mg/kg, oral, dosing stopped at 50 days) | effect of prolonged treatment on tumor growth ([3]; oral, 10 and 50 mg/kg) | Microsome metabolism - primate, % loss @ 1 h [4] | Microsome metabolism - dog, % loss @ 1 h [5] | HERG % inhibition @ 10 µM (hERG ion channel) | Acute Toxicity Dose (ATD) in mouse [6] | EC50 (G-CSF) | CC50 at 72 hours ([1]; 72 hours, CellTiter-Glo) | effect on level of membrane bound VEGF (Western blot) ([2]; HeLa cells (text b57), β-actin loading control) | tumor size (wet weight) vs no-treatment or vehicle controls [7] | tumor growth reduced ([3]; 200 mg/kg orally, twice per day, after 7 days of treatment)
1 | COc1ccc(C2c3[nH]c4ccc(Br)cc4c3CC3C(=O)N(C4CCCCC4)C(=S)N32)cc1.O=C(O)C(F)(F)F (stereo not shown) [PTC-510, 9-bromo-2-cyclohexyl-5-(4-methoxyphenyl)-3-thioxo-2,3,5,6,11,11a-hexahydro-1H-imidazo[1’,5’:1,6]pyrido[3,4-b]indol-1-one trifluoroacetate] | > 30 µM | inhibits the production of the membrane bound VEGF189/206 | about 40 days | 25 days | 43% | > 50 days | reduced tumor growth significantly in a dose-dependent fashion | 0% | 0% | 2% | No overt toxicity at 1000 mg/kg | – | – | – | – | –
2 | Brc1ccc2[nH]c3c(c2c1)CCCC3n1cccc1 (stereo not shown) [PTC-858, 6-bromo-1-(1H-pyrrol-1-yl)-2,3,4,9-tetrahydro-1H-carbazole] | – | – | – | – | – | – | – | – | – | – | – | > 30 µM | > 30 µM | reduced the level of membrane bound VEGF in HeLa cells in a dose-dependent fashion | significantly reduced tumor size | 25%

Source: article PMC5161367, “Discovery of Novel Small Molecule Inhibitors of VEGF Expression in Tumor Cells Using a Cell-Based High Throughput Screening Platform” (PLoS ONE, 2016)
